What was measured:
U-937 = assay: Antiproliferative activity, MTT assay, U-937 cells; format: cell-based, human; conditions: for IC50: Homo sapiens, U-937, 72 h, MTT, mean ± SE, at least three independent experiments
Excerpt: (§1) In Table 1, we summarize the antiproliferative activity of the 15 novel 2-arylalkylamino-4-amino-5-(3′,4′,5′-trimethoxybenzoyl)thiazole derivatives 8a–o against human leukemia (U-937) and melanoma (SK-MEL-1) tumor cells lines.
(§2) Human U-937 and SK-MEL-1 cell lines were from the German Collection of Microorganisms and Cell Cultures (Braunschweig, Germany; DSMZ No: ACC 5 and ACC 303, respectively). The U-937 is a myeloid leukemia cell line isolated from a histiocytic lymphoma. SK-MEL-1 is a melanoma cell line. Cells were cultured in suspension in RPMI 1640 medium supplemented with 10% (v/v) fetal bovine serum and antibiotics (100 μg mL^−1 streptomycin and 100 U mL^−1 penicillin), at 37 °C in a humidified atmosphere containing 5% CO2. The trypan blue exclusion method was used for counting the cells by a hemocytometer, and cell viability was always greater than 95% in all experiments. Compounds were dissolved in DMSO, and further dilutions were made in culture medium just before use. […] The effects on cell viability of synthetic compounds were determined using a colorimetric assay with the reduction of 3-(4,5-dimethyl-2-thiazolyl-)-2,5-diphenyl-2H-tetrazolium bromide (MTT) as previously described. Briefly, 5 × 10^3 cells were seeded in 96-well microculture plates with increasing concentrations of compounds for 72 h. Then, MTT (0.5 mg mL^−1) was added and incubated for 4 h, and the reaction was stopped with 20% sodium dodecyl sulfate. A570 was used as a measure of cell viability. Concentrations inducing a 50% inhibition of cell growth were determined graphically by nonlinear regression using the curve-fitting algorithm of GraphPad Prism 4.0 (GraphPad Inc La Jolla, CA, USA).

SK-MEL-1 = assay: Antiproliferative activity, MTT assay, SK-MEL-1 cells; format: cell-based, human; conditions: for IC50: Homo sapiens, SK-MEL-1, 72 h, MTT, mean ± SE, at least three independent experiments
Excerpt: as §1, §2

Bovine brain tubulin = assay: Inhibition of tubulin polymerization (turbidimetric assembly); format: biochemical
Description: Bovine brain tubulin was purified as described previously. To evaluate the effect of the compounds on tubulin assembly in vitro [31], varying concentrations were preincubated with 10 μM tubulin in glutamate buffer at 30 °C and then cooled to 0 °C. After addition of GTP, the mixtures were transferred to 0 °C cuvettes in a recording spectrophotometer and warmed to 30 °C, and the assembly of tubulin was observed turbidimetrically. The IC50 was defined as the compound concentration that inhibited the extent of assembly by 50% after a 20 min incubation.

[1] = Cytotoxicity against peripheral blood lymphocytes, MTT assay; format: cell-based; conditions: human, peripheral blood lymphocytes (PBL) from healthy donors, read-out: IC50 cytotoxic activity against normal cells (PBL)
Description: In order to investigate the selective antiproliferative activity of the new synthesized compounds, we tested representative derivatives 8f and 8k against peripheral blood lymphocytes (PBL) isolated from healthy donors.
PBLs from healthy donors were obtained by separation on Lymphoprep (Fresenius KABI Norge AS, Halden, Norway) gradient. After extensive washing, cells were resuspended (1.0 × 10^6 cells/mL) in RPMI-1640 with 10% fetal bovine serum and incubated overnight in a 96-well tissue culture microtiter plate. Varying compound concentrations were added to the cells, and the MTT assay was used to assess viability after a 48 h treatment.

U-937 leukemia cells = assay: Cell cycle analysis by flow cytometry (propidium iodide); format: cell-based, human
Description: Induction of apoptosis in cancer cells is recognized as an efficient strategy for cancer chemotherapy. For this reason, it was decided to determine whether these compounds display their cytotoxic action through alterations in cell cycle progression and induction of cell apotosis. To this end, the effects at different time periods (6, 12 and 24 h) with different concentrations (10 and 30 μM) of 8f and 8k on cell cycle progression on U-937 leukemia cells were investigated by flow cytometry analyses.
Flow cytometric analysis of propidium iodide-stained cells was performed as previously described. Briefly, U-937 cells were treated with the indicated compounds at the specified concentrations in RPMI 1640 medium. After treatments, cells were centrifuged for 10 min at 500× g, washed with cold phosphate-buffered saline (PBS), fixed with ice-cold 75% ethanol and stored at −20 °C for at least 1 h. Samples were then centrifuged at 500 × g for 10 min at 4 °C, washed with PBS, resuspended in 200 μL of PBS containing 100 μg mL^−1 RNase A and 50 μg mL^−1 propidium iodide and incubated for 1 h in the dark. The DNA content was analyzed by flow cytometry with a Becton-Dickinson FACSVerse^TM cytometer (BD Biosciences, San Jose, CA, USA). The percentage of cells in each phase of the cell cycle was determined for a minimum of 10^4 cells, and histograms were analyzed with Flowing 2.5.0 software.

CDK6/Cyclin D3 = molecular target: T1, CDK6/Cyclin D3 (Homo sapiens, UniProt Q00534); assay: In vitro CDK inhibition assay (ADP-Glo), CDK6; format: biochemical; conditions: single concentration of 10 μM; range over CDK4, CDK6, CDK9 and 8f, 8k; read-out: enzyme inhibition CDK6
T1 construct: purchased Promega
Description: (§3) The CDK4, 6 and 9 inhibitory activies were determined using the CDK4/Cyclin D1 Assay kit (ProQinase, Freiburg im Breisgau, Germany), CDK6/Cyclin D3 Kinase Enzyme System (Promega, Milan, Italy) and CDK9/CyclinK Kinase Enzyme System (Promega) by ADP-Glo CDK assays following the manufacturer’s instructions. The assay was performed with the test compounds at 10 μM.

CDK4/Cyclin D1 = molecular target: T2, CDK4/Cyclin D1 (Homo sapiens, UniProt P11802); assay: In vitro CDK inhibition assay (ADP-Glo), CDK4; format: biochemical; conditions: single concentration of 10 μM; range over CDK4, CDK6, CDK9 and 8f, 8k; read-out: enzyme inhibition CDK4
T2 construct: purchased ProQinase
Description: as §3

CDK9/CyclinK = molecular target: T3, CDK9/CyclinK (Homo sapiens, UniProt P50750); assay: In vitro CDK inhibition assay (ADP-Glo), CDK9; format: biochemical; conditions: single concentration of 10 μM; range over CDK4, CDK6, CDK9 and 8f, 8k; read-out: enzyme inhibition CDK9
T3 construct: purchased Promega
Description: as §3

T3 sequence (P50750 whole entry): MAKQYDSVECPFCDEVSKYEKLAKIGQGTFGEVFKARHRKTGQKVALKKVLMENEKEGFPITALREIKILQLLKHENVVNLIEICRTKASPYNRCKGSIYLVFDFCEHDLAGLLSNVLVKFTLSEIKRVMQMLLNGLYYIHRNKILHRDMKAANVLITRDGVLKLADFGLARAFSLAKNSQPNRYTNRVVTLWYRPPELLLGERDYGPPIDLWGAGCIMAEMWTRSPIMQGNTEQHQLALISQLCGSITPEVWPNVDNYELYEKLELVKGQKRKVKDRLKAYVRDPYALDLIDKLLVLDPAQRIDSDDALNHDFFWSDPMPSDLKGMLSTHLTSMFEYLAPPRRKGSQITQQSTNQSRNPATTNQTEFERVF
T3 sequence (O75909 whole entry partner): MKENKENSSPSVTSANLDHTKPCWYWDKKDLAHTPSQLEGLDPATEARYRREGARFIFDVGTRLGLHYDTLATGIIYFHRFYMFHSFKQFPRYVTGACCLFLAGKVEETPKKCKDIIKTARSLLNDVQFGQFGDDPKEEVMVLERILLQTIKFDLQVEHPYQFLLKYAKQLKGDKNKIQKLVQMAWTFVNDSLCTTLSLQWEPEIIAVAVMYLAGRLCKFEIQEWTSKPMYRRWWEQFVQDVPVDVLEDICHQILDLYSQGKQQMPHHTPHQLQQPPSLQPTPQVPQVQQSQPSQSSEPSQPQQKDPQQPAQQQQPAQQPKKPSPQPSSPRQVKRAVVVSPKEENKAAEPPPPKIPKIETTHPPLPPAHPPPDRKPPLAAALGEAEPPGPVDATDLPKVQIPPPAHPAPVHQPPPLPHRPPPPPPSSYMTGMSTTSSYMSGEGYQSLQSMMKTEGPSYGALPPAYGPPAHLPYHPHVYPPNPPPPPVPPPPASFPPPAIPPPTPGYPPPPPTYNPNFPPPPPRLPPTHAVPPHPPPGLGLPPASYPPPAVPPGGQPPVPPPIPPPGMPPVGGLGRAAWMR
T2 sequence (P11802 whole entry): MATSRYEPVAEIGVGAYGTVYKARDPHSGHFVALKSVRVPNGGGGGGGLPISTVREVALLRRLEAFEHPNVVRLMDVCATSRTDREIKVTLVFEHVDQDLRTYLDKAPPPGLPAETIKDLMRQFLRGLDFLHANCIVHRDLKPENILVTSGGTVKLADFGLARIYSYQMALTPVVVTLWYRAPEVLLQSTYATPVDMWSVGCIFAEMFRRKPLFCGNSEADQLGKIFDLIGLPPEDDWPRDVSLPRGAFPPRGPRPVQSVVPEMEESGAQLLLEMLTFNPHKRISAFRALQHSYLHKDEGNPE
T2 sequence (P24385 whole entry partner): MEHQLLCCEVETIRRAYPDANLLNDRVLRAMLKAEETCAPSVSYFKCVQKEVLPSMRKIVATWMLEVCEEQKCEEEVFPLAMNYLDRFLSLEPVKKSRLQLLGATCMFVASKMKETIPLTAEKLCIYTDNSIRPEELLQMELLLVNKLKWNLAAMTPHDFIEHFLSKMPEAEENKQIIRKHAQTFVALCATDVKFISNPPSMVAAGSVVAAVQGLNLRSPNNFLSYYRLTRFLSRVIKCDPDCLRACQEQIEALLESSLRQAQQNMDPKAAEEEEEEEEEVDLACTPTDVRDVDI
T1 sequence (Q00534 whole entry): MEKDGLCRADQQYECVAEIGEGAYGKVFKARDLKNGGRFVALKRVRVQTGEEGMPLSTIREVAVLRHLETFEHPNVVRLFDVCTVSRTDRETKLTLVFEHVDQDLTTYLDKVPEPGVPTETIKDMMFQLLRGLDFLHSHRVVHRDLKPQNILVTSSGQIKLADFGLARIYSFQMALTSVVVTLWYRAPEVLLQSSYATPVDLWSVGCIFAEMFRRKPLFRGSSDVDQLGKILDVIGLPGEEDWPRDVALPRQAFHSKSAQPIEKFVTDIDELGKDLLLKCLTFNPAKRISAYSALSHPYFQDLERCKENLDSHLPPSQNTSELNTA
T1 sequence (P30281 whole entry partner): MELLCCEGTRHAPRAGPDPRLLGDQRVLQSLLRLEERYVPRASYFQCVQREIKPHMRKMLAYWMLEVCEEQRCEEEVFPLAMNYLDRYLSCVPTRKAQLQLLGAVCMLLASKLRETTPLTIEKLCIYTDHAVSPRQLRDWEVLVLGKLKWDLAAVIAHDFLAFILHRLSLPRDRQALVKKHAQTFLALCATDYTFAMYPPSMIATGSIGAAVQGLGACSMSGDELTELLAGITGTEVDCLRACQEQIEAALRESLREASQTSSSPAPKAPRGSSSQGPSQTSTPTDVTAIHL

Which melting point does the source give for COc1cccc(CNc2nc(N)c(C(=O)c3cc(OC)c(OC)c(OC)c3)s2)c1 [8l, (4-Amino-2-((3-methoxybenzyl)amino)thiazol-5-yl)(3,4,5-trimethoxyphenyl)methanone] here?
The melting point was 125 to 128 °C.

What about the IC50 (U-937) of the same compound?
The IC50 was 12.3 ± 6.1 µM.

What about the “fold more potent than p-methoxy counterpart 8j” value (U-937; antiproliferative activity, cell line not specified (U-937 and SK-MEL-1)) of the same compound?
Its value is 2 fold.

What about the IC50 (SK-MEL-1) of the same compound?
The IC50 was 12.4 ± 4.8 µM.

Which IC50 (U-937) does the source give for COc1cc(C(=O)c2sc(NCCCc3ccccc3)nc2N)cc(OC)c1OC [8c, (4-Amino-2-((3-phenylpropyl)amino)thiazol-5-yl)(3,4,5-trimethoxyphenyl)methanone] here?
The IC50 was 10.7 ± 2.8 µM.

What about the “increase in potency relative to 8a and 8b” value (U-937; U-937 cells) of the same compound?
Its value is 2 fold.

And the IC50 (SK-MEL-1)?
The IC50 was 16.7 ± 7 µM.

For COc1cc(C(=O)c2sc(NCCc3ccc(Cl)cc3)nc2N)cc(OC)c1OC [8f, (4-Amino-2-((4-chlorophenethyl)amino)thiazol-5-yl)(3,4,5-trimethoxyphenyl)methanone], which IC50 (Bovine brain tubulin; 10 μM tubulin, 20 min incubation at 30 °C) is on record?
The IC50 was greater than 20 µM.

What about the “inhibition of tubulin polymerization” value (Bovine brain tubulin; at high concentrations (up to 20 μM)) of the same compound?
The value was “did not show any noteworthy inhibition”.

What about the IC50 at 48 h [1] of the same compound?
Its IC50 at 48 h is greater than 100 µM.

And the “% G1” value (U-937 leukemia cells; 6 h, 10 µM)?
Its value is 40.4 ± 1.0 %.

What about the “% G2-M” value (U-937 leukemia cells; 6 h, 10 µM) of the same compound?
Its value is 23.6 ± 1.3%.

What about the “% S” value (U-937 leukemia cells; 6 h, 10 µM) of the same compound?
The value was 29.3 ± 0.1 %.

What about the “% Sub-G1” value (U-937 leukemia cells; 6 h, 10 µM) of the same compound?
Its value is 4.4 ± 0.5%.

What about the “% G1” value (U-937 leukemia cells; 6 h, 30 µM) of the same compound?
The value was 40.5 ± 1.6 %.

And the “% G2-M” value (U-937 leukemia cells; 6 h, 30 µM)?
Its value is 23.3 ± 1.4%.

What about the “% S” value (U-937 leukemia cells; 6 h, 30 µM) of the same compound?
Its value is 30.9 ± 0.4 %.

What about the “% Sub-G1” value (U-937 leukemia cells; 6 h, 30 µM) of the same compound?
The value was 3.8 ± 0.1%.

What about the “% G1” value (U-937 leukemia cells; 12 h, 10 µM) of the same compound?
Its value is 47.8 ± 1.0%.

What about the “% G2-M” value (U-937 leukemia cells; 12 h, 10 µM) of the same compound?
Its value is 21.5 ± 1.2%.

What about the “% S” value (U-937 leukemia cells; 12 h, 10 µM) of the same compound?
The value was 22.4 ± 0.2%.

And the “% Sub-G1” value (U-937 leukemia cells; 12 h, 10 µM)?
The value was 6.5 ± 0.2 %.

And the “% G1” value (U-937 leukemia cells; 12 h, 30 µM)?
Its value is 27.4 ± 0.4 %.

What about the “% G2-M” value (U-937 leukemia cells; 12 h, 30 µM) of the same compound?
Its value is 27.6 ± 0.6 %.

And the “% S” value (U-937 leukemia cells; 12 h, 30 µM)?
Its value is 25.5 ± 0.1 %.

What about the “% Sub-G1” value (U-937 leukemia cells; 12 h, 30 µM) of the same compound?
Its value is 17.8 ± 1.0 %.

What about the “% G1” value (U-937 leukemia cells; 24 h, 10 µM) of the same compound?
The value was 42.5 ± 0.3 %.

What about the “% G2-M” value (U-937 leukemia cells; 24 h, 10 µM) of the same compound?
The value was 15.0 ± 0.8%.

And the “% S” value (U-937 leukemia cells; 24 h, 10 µM)?
Its value is 29.8 ± 0.3 %.

And the “% Sub-G1” value (U-937 leukemia cells; 24 h, 10 µM)?
Its value is 10.3 ± 0.7 %.

And the “% G1” value (U-937 leukemia cells; 24 h, 30 µM)?
Its value is 12.6 ± 0.7 %.

And the “% G2-M” value (U-937 leukemia cells; 24 h, 30 µM)?
Its value is 16.6 ± 0.8%.

What about the “% S” value (U-937 leukemia cells; 24 h, 30 µM) of the same compound?
Its value is 13.6 ± 0.6 %.

What about the “% Sub-G1” value (U-937 leukemia cells; 24 h, 30 µM) of the same compound?
Its value is 56.2 ± 2.0 %.

What about the “increase of apoptotic cells with respect to control cells” value (U-937 leukemia cells; 24 h, 30 µM) of the same compound?
The value was “approximately 16.5 fold”.

And the inhibition at 10 µM (CDK6/Cyclin D3)?
The inhibition at 10 µM was 2 to 8%.

What about the IC50 (U-937) of the same compound?
The IC50 was 6.7 ± 3.6 µM.

And the inhibition at 10 µM (CDK4/Cyclin D1)?
Its inhibition at 10 µM is 2 to 8%.

And the inhibition at 10 µM (CDK9/CyclinK)?
The inhibition at 10 µM was 2 to 8%.

What about the IC50 (SK-MEL-1) of the same compound?
The IC50 was 12.2 ± 3.2 µM.

Which results are given for COc1cc(C(=O)c2sc(NCc3ccc(Cl)cc3)nc2N)cc(OC)c1OC [8e, (4-Amino-2-((4-chlorobenzyl)amino)thiazol-5-yl)(3,4,5-trimethoxyphenyl)methanone]?
melting point: 156 to 159 °C; IC50 (U-937): 8.7 ± 5.4 µM; IC50 (SK-MEL-1): 8.3 ± 5.5 µM; fold more potent than 8f (SK-MEL-1; SK-MEL-1 cells): 1.5 fold

What does the source list for COc1cc(C(=O)c2sc(NCc3ccc4c(c3)OCO4)nc2N)cc(OC)c1OC [8o, (4-Amino-2-((benzo[d][1,3]dioxol-5-ylmethyl)amino)thiazol-5-yl)(3,4,5-trimethoxyphenyl) methanone]?
melting point: 156 to 158 °C; IC50 (U-937): 27 ± 0.9 µM; IC50 (SK-MEL-1): 24.7 ± 1 µM

What does the source list for COc1cc(C(=O)c2sc(NCc3cccc(C)c3)nc2N)cc(OC)c1OC [8i, (4-Amino-2-((3-methylbenzyl)amino)thiazol-5-yl)(3,4,5-trimethoxyphenyl)methanone]?
melting point: 150 to 152 °C; IC50 (U-937): 18.1 ± 6.4 µM; IC50 (SK-MEL-1): 16.7 ± 5.6 µM

For COc1ccc(Nc2nc(N)c(C(=O)c3cc(OC)c(OC)c(OC)c3)s2)cc1 [2a, reference compound], which IC50 (U-937) is on record?
Its IC50 is 0.484 ± 0.368 µM.

What about the IC50 (SK-MEL-1) of the same compound?
Its IC50 is 5.2 ± 1.4 µM.

With COc1cc(C(=O)c2sc(NCc3ccc(C)cc3)nc2N)cc(OC)c1OC [8h, (4-Amino-2-((4-methylbenzyl)amino)thiazol-5-yl)(3,4,5-trimethoxyphenyl)methanone] as the compound, how does the melting point read?
Its melting point is 145 to 147 °C.

And the IC50 (U-937)?
Its IC50 is 15.4 ± 4.9 µM.

And the IC50 (SK-MEL-1)?
Its IC50 is 19 ± 9.4 µM.

With COc1cccc2c1C(=O)c1c(O)c3c(c(O)c1C2=O)C[C@@](O)(C(=O)CO)C[C@@H]3O[C@H]1C[C@H](N)[C@H](O)[C@H](C)O1 [Doxorubicin, reference compound] as the compound, how does the IC50 (U-937) read?
The IC50 was 0.083 ± 0.021 µM.

And the IC50 (SK-MEL-1)?
The IC50 was 0.274 ± 0.07 µM.

From paper PMC7248693, “Synthesis and Biological Evaluation of 2-Substituted Benzyl-/Phenylethylamino-4-amino-5-aroylthiazoles as Apoptosis-Inducing Anticancer Agents” (Molecules, 2020)
